One assay concerns P. aeruginosa ATCC27853. The assay can be described thus: MIC determination by microplate dilution, P. aeruginosa human strain. The format is cell-based, Pseudomonas aeruginosa. To be noted: Pseudomonas aeruginosa, ATCC27853, Gram-negative, Mueller-Hinton medium, 24 h, 37° C. The method, then:
(§1) 1) Preparation of the Preculture
(§2) A negative control (2 mL of sterile culture medium)
(§3) A positive control (1940 μL of culture medium+40 μL of DMSO+20 μL of bacterial suspension) from a thawed biological strain (the biological strains are stored at −80° C. in glycerol).
(§4) The tubes were incubated at 37° C. for 24 hours at 100 rpm.
(§5) The microorganisms were handled under a type L2 laboratory fume cupboard and, before any handling, a UV cycle was programmed and only sterile material was used. […] The chemical compounds to be tested were prepared in a DMSO/methanol mixture (50/50) at a concentration of 5 mg/mL.
(§6) 2) Preparation of the Microplate for the Determination of the Minimum Inhibitory Concentration (MIC)
(§7) After 24 hours of incubation, a measurement of the optical density was taken using a spectrophotometer at 600 nm, collecting 100 μL of the bacterial suspension diluted in 900 μL of the sterile culture medium. This test required the use of a 96-well plate and the required volume of the microbial suspension to be seeded was calculated for an OD corresponding to a value equal to 0.01 in each well. In this plate, the first line corresponded to the negative control (195 μL of sterile culture medium in each well), the second line to the positive control (seeded culture medium supplemented with 2% of DMSO), the third line was loaded twice with bacterial suspension, 8 μL of test product were placed in each well. Thereafter, a 0.5 cascade dilution was performed from this line.
(§8) The first column served as inhibition control. A sterile filter was then placed on the microplate, allowing the passage of gases but not of contaminants. The microplate was incubated at 37° C. under a humid atmosphere for 24 hours.
(§9) NB: The medium used is Mueller-Hinton (MH) medium for bacteria. All the tests were performed in duplicate.
(§10) 4) Reading of the Results
(§11) After incubation, the filter was replaced with a transparent film, and an OD reading was then taken in an iEMS plate spectrophotometer at 620 nm. Calculation of the minimum inhibitory concentration (MIC) was performed.

Another assay deals with E. coli ATCC28922. The assay is described as follows: MIC determination by microplate dilution, E. coli human strain. The format is cell-based, Escherichia coli. To be noted: Escherichia coli, ATCC28922, Gram-negative, Mueller-Hinton medium, 24 h, 37° C. The method, then:
as §1, §2, §3, §4, §5, §6, §7, §8, §9, §10, §11

In the next assay the test system is S. aureus (340). The assay can be described thus: MIC determination by microplate dilution, S. aureus animal strain. The format is cell-based, Staphylococcus aureus. To be noted: Staphylococcus aureus, Gram-positive, Mueller-Hinton medium, 24 h, 37° C. The method, then:
as §1, §2, §3, §4, §5, §6, §7, §8, §9, §10, §11

The next assay deals with CHO-K1 cells. The assay can be described thus: WST1 cytotoxicity test on CHO-K1 cells. The format is cell-based, Chinese hamster. To be noted: Cricetulus griseus, CHO-K1, 24 h, read-out: IC50 (μg/mL) CHO. The method, then:
Test WST1 was used to measure the cytotoxic activity of the products. This is a colorimetric test which makes it possible to measure the viability and the degree of cell proliferation. It is based on cleavage of the colorless tetrazolium salts WST-1 (4-[3-(4-iodophenyl)-2-(4-nitrophenyl)-2H-5-tetrazolio]-1,3-benzene disulfonate) with mitochondrial dehydrogenases to the yellow-colored formazan derivative, which may be quantified by spectrophotometry at 420-480 nm.
The WST1 test was performed on Chinese hamster ovary cells. The CHO-K1 cells (ATCC, USA) are kept in culture on McCoy's 5A medium supplemented with 10% fetal calf serum, 2 mM of L-glutamine and a mixture of penicillin-streptomycin (100 U/ml: 10 μg/mL). The culture is incubated at 37° C. under an atmosphere enriched in CO2 (5%), and subcultured every two days.
The cells are transferred into 96-well plates (25 000 cells/mL) in whole McCoy's 5A medium, and maintained for 24 hours at 37° C. under a humid atmosphere enriched in CO2 (5%). Increasing concentrations of test products are added to the wells in double tests and 8 growth controls containing the cells in the medium alone are included in each series of tests. After 24 hours at 37° C. (5% CO2), the culture medium is removed, the cells are rinsed in phosphate buffer (PBS) and 50 μL of PBS containing 10% of reagent WST1 are added to each well. After 20 minutes of incubation at 37° C., the results are read by spectrophotometry at 450 nm.
The results are expressed in dose-response relationships, modeled by nonlinear regression analysis using the TableCurve software. The 50% inhibitory concentration (IC50) represents the concentration of product that is capable of reducing the cell viability by 50%.

For assay [1], the system named is P. aeruginosa (1051575). The assay is described as follows: Potentiation of the doxycycline activity at 2 μg/mL. To be noted: in combination with doxycycline 2 μg/mL; 24 h, 37°. The assay is classed as cell-based, Pseudomonas aeruginosa.
Another assay has as its system S. intermedius (1051997). The assay can be described thus: MIC determination by microplate dilution, S. intermedius animal strain. To be noted: Staphylococcus intermedius, Gram-positive, Mueller-Hinton medium, 24 h, 37° C. The format is cell-based, Staphylococcus intermedius. The method, then:
as §1, §2, §3, §4, §5, §6, §7, §8, §9, §10, §11

Another assay deals with E. coli (1956). The assay can be described thus: MIC determination by microplate dilution, E. coli animal strain. The format is cell-based, Escherichia coli. To be noted: Escherichia coli, Gram-negative, Mueller-Hinton medium, 24 h, 37° C. The procedure:
as §1, §2, §3, §4, §5, §6, §7, §8, §9, §10, §11

The next assay has as its system S. aureus ATCC25923. The assay is described as follows: MIC determination by microplate dilution, S. aureus human strain. To be noted: Staphylococcus aureus, ATCC25923, Gram-positive, Mueller-Hinton medium, 24 h, 37° C. The format is cell-based, Staphylococcus aureus. The method, then:
as §1, §2, §3, §4, §5, §6, §7, §8, §9, §10, §11

Assay [2] relates to P. aeruginosa (1051575). The assay can be described thus: MIC determination by microplate dilution, P. aeruginosa animal strain. The format is cell-based, Pseudomonas aeruginosa. To be noted: Pseudomonas aeruginosa, Gram-negative, Mueller-Hinton medium, 24 h, 37° C. The procedure: as §1, §2, §3, §4, §5, §6, §7, §8, §9, §10, §11
In a further assay the test system is E. faecalis ATCC29212. The assay can be described thus: MIC determination by microplate dilution, E. faecalis human strain. The assay is classed as cell-based, Enterococcus faecalis. To be noted: Enterococcus faecalis, ATCC29212, Gram-positive, Mueller-Hinton medium, 24 h, 37° C. The procedure:
as §1, §2, §3, §4, §5, §6, §7, §8, §9, §10, §11

Experimental findings from US20190255073A1, “ESTERS OF 3-POLYAMINE DERIVATIVES OF BILE ACIDS FOR THE TREATMENT OF INFECTIONS” (VIRBAC, priority 2016, published 2019) are described below.

In general, MIC refers to the least concentration at which growth counts as inhibited. Read a high MIC as a need for much substance.

Values after ≈ are worked out from the molar mass of the structure shown.

Take `CC(C)OC(=O)CC[C@@H](C)[C@H]1CCC2C3CCC4C[C@@H](NCCCN(CCCN)CCCN)CC[C@]4(C)C3C[C@H](O)[C@@]21C` (stereo partly drawn) [(28), isopropyl 3β-(tris(3-aminopropyl)amine)deoxycholate]: the minimum inhibitory concentration (MIC) against P. aeruginosa ATCC27853 came out at 30 µg/mL (≈ 49.6 µM); with E. coli ATCC28922 it was 15 µg/mL (≈ 24.8 µM); in the assay with S. aureus (340) it was 15 µg/mL (≈ 24.8 µM); with S. intermedius (1051997), 8 µg/mL (≈ 13.2 µM); in the assay on E. coli (1956), 30 µg/mL (≈ 49.6 µM); against S. aureus ATCC25923, 15 µg/mL (≈ 24.8 µM). The MIC in the assay on P. aeruginosa (1051575) [2] and in the assay with E. faecalis ATCC29212 was 30 µg/mL (≈ 49.6 µM) each time. Moreover, the IC50 in the assay with CHO-K1 cells stood at 85 µg/mL (≈ 141 µM). Further, the “MIC - P. aeruginosa (1051575): content of compound of formula (I) to restore the doxycycline activity (at 2 μg/mL)” value (shortened to “MIC - P. aeruginosa (1051575): content”) in the assay on P. aeruginosa (1051575) [1] is 2 µg/mL.
Regarding `COC(=O)CC[C@@H](C)[C@H]1CCC2C3C(CC[C@@]21C)[C@@]1(C)CC[C@H](NCCCN(C)CCCN)CC1C[C@H]3O` (stereo partly drawn) [(37), methyl 3β-(bis(3-aminopropyl)methylamine)chenodeoxycholate], the MIC in the assay on P. aeruginosa ATCC27853 was 27 µg/mL (≈ 50.6 µM); against E. coli ATCC28922 it was 27 µg/mL (≈ 50.6 µM); against S. aureus (340), 27 µg/mL (≈ 50.6 µM); in the assay on S. intermedius (1051997), greater than 107 µg/mL; in the assay on E. coli (1956), 13 µg/mL (≈ 24.4 µM); in the assay with S. aureus ATCC25923, 27 µg/mL (≈ 50.6 µM). Also, the MIC against P. aeruginosa (1051575) [2] and in the assay with E. faecalis ATCC29212 was 13 µg/mL (≈ 24.4 µM) in each case. Besides, in the assay with CHO-K1 cells, the IC50 stood at 115 µg/mL (≈ 215 µM). For the same compound, the “MIC - P. aeruginosa (1051575): content” value in the assay with P. aeruginosa (1051575) [1] amounted to 3 µg/mL.
`CC(C)OC(=O)CC[C@@H](C)[C@H]1CCC2C3C(CC[C@@]21C)[C@@]1(C)CC[C@H](NCCCN(C)CCCN)CC1C[C@H]3O` (stereo partly drawn) [(41), isopropyl 3β-(bis(3-aminopropyl)methylamine)chenodeoxycholate]: the MIC in the assay with P. aeruginosa ATCC27853 was determined as 28 µg/mL (≈ 49.8 µM); against E. coli ATCC28922, 56 µg/mL (≈ 99.7 µM); against S. aureus (340), 14 µg/mL (≈ 24.9 µM); in the assay on S. intermedius (1051997), 7 µg/mL (≈ 12.5 µM); in the assay with E. coli (1956), 28 µg/mL (≈ 49.8 µM); against S. aureus ATCC25923 it was 14 µg/mL (≈ 24.9 µM). Also, the MIC in the assay on P. aeruginosa (1051575) [2] and in the assay on E. faecalis ATCC29212 was 28 µg/mL (≈ 49.8 µM) throughout. For the same compound, the IC50 in the assay with CHO-K1 cells turned out to be 4 µg/mL (≈ 7.12 µM). Further, in the assay on P. aeruginosa (1051575) [1], the “MIC - P. aeruginosa (1051575): content” value amounted to 4 µg/mL.
With `COC(=O)CC[C@@H](C)[C@H]1CCC2C3C(CC[C@@]21C)[C@@]1(C)CC[C@H](NCCNCCNCCNCCNCCN)CC1C[C@@H]3O` (stereo partly drawn) [(50), methyl 3β-(pentaethylenehexamine)ursodeoxycholate], the minimum inhibitory concentration (MIC) in the assay with P. aeruginosa ATCC27853 amounted to 60 µg/mL (≈ 96.6 µM); with E. coli ATCC28922 it was 60 µg/mL (≈ 96.6 µM); against S. aureus (340), 30 µg/mL (≈ 48.3 µM); in the assay on S. intermedius (1051997) it was 8 µg/mL (≈ 12.9 µM); in the assay with E. coli (1956), 60 µg/mL (≈ 96.6 µM); against S. aureus ATCC25923, 30 µg/mL (≈ 48.3 µM). Also, the minimum inhibitory concentration (MIC) in the assay on P. aeruginosa (1051575) [2] and in the assay with E. faecalis ATCC29212 was 60 µg/mL (≈ 96.6 µM) each time. Besides, the IC50 with CHO-K1 cells was 45 µg/mL (≈ 72.5 µM). Also, in the assay with P. aeruginosa (1051575) [1], the “MIC - P. aeruginosa (1051575): content” value was found to be 16 µg/mL.
Consider `CC(C)OC(=O)CC[C@@H](C)[C@H]1CCC2C3C(CC[C@@]21C)[C@@]1(C)CC[C@H](NCCCNCCCNCCCN)CC1C[C@@H]3O` (stereo partly drawn) [(51), isopropyl 3β-norsperminoursodeoxycholate], for which the minimum inhibitory concentration (MIC) in the assay on P. aeruginosa ATCC27853 was found to be 30 µg/mL (≈ 49.6 µM); in the assay with E. coli ATCC28922, 30 µg/mL (≈ 49.6 µM); in the assay with S. aureus (340), 15 µg/mL (≈ 24.8 µM); against S. intermedius (1051997), 4 µg/mL (≈ 6.61 µM); with E. coli (1956), 62 µg/mL (≈ 102 µM); with S. aureus ATCC25923, 15 µg/mL (≈ 24.8 µM). The MIC is 30 µg/mL (≈ 49.6 µM) in the assay on P. aeruginosa (1051575) [2] and 62 µg/mL (≈ 102 µM) in the assay with E. faecalis ATCC29212. The IC50 with CHO-K1 cells stood at 30 µg/mL (≈ 49.6 µM). Also, the “MIC - P. aeruginosa (1051575): content” value with P. aeruginosa (1051575) [1] came to 2 µg/mL.
